Experimental data reported in publication PMC11036650, “Different Modes of Mechanism of Gamma-Mangostin and Alpha-Mangostin to Inhibit Cell Migration of Triple-Negative Breast Cancer Cells Concerning CXCR4 Downregulation and ROS Generation” (Iranian Journal of Pharmaceutical Research : IJPR, 2023).
Read-outs that look alike come from different tables or passages of the source.

Columns and labels:
Assay type in all cases: cell-based, human
[1] = Cell viability assay (CCK-8); conditions: human
Method: (§1) The MDA-MB-231 breast cancer cells were cultured in an L-15 medium, enriched with 15% fetal bovine serum (FBS) (Gibco, USA) and 1% penicillin-streptomycin (Gibco, USA), and incubated in CO2-free 37°C incubator.
(§2) The compounds γ-mangostin (#M6824) and α-mangostin (#M3824) were purchased from Sigma-Aldrich (USA). A suspension of cells (20,000 cells/well in 100 μL) was cultured in a 96-well plate. After an initial 24-hour incubation, γ-mangostin or α-mangostin of varying concentrations (1 - 100 μM) was added to the plate, followed by another 24-hour incubation. A solution of Cell Counting Kit-8 (CCK-8) (Dojindo #347-07621, Japan) was added to each well, and the plate was incubated for 2 hours. The absorbance was subsequently read at 450 nm using a microplate reader ([26]). The assay was carried out in triplicate.

[2] = tested on: MDA-MB-231 cells; experiment: Cell viability assay (CCK-8); conditions: MDA-MB-231 cells, 24 hours, CCK-8 assay, triplicate ± SD
Method: as §1, §2

[3] = tested on: MDA-MB-231 cells; experiment: Intracellular ROS level measurement (DCFDA, flow cytometry); conditions: for ROS accumulation: 10 µM
Method: The MDA-MB-231 cells were collected in a buffer with 10% FBS in phosphate-buffered saline (PBS) and transferred in a sterile light-blocking microtube before being stained with 20 µM of 2’,7’-dichlorofluorescein diacetate (DCFDA) (Sigma #D6883, USA) and incubated for 30 minutes. Later, γ-mangostin and α-mangostin were added to the cell suspensions and incubated in a 37 °C incubator (with 5% CO2) before analyzing by a flow cytometer (Calibur) at indicated times (4, 8, 18, and 24 hours). 2’,7’-dichlorofluorescein diacetate reacted with the hydroxyl radicals (·OH) and transformed into fluorescent 2,7-dichlorofluorescein (DCF). The fluorescence intensity of DCF based on 5,000 cells per gate was calculated using the flow cytometer ([29], [30]). In a separate experiment, the cells already stained with DCFDA were treated with 5 mM N-acetyl-L-cysteine (NAC) (Wako #017-05131, Japan) and incubated for an hour before the treatment with γ-mangostin and α-mangostin for the next 24 hours, and the ROS level was subsequently measured. The assay was carried out in triplicate.

[4] = tested on: Farp; experiment: qRT-PCR gene expression, Farp; conditions: MDA-MB-231 cells, RT-qPCR
Method: (§3) Total ribonucleic acid (RNA) upon treatment with γ-mangostin and α-mangostin was collected from cells using Sepasol (Nacalai Tesque, Japan). The reverse transcription of complementary deoxyribonucleic acid (cDNA) was performed using ReverTra Ace qPCR RT Kit (Toyobo, Japan), which included DNAse I to remove genomic DNA. Quantitative real-time reverse-transcription polymerase chain reaction (qRT-PCR) was performed using the Thunderbird SYBR qPCR Mix (Toyobo, Japan) on a Real-Time PCR System Light Cycler 96 (Roche, USA). Rac, Farp, CXCR4 ([28]), and latrophilin-2 (LPHN2) primers were used, and GAPDH was detected as the internal control.

[5] = tested on: MDA-MB-231 cells; experiment: Migration assay (wound healing); conditions: 10 μM, 24 and 42 hours, mitomycin C pretreatment, P < 0.05
Method: A culture-insert 2 well (cat #ib81176) was placed in the well. Then, 5 × 10^4 cells were seeded on each side of the insert. After 24 hours, the medium was discarded and replaced with the fresh medium containing 0.5% FBS, and the cells were cultured for another 18 hours. The next day, the medium was replaced with 10 µg/mL mitomycin C (Wako #139-18711, Japan) and cultured for 2 hours before treatment with 10 μM γ-mangostin and 10 μM α-mangostin. Right after the treatment, the cells were observed under the microscope at 0 hour. At the indicated times (24 and 42 hours), the cell-free area from three parts (i.e., upper, center, and lower scratch) was measured by analyzing the gap closure rate using ImageJ software ([27]).

[6] = tested on: LPHN2; experiment: qRT-PCR gene expression, LPHN2; conditions: MDA-MB-231 cells, RT-qPCR
Method: as §3

[7] = tested on: CXCR4; experiment: qRT-PCR gene expression, CXCR4; conditions: MDA-MB-231 cells, RT-qPCR
Method: as §3

[8] = longer incubation up to 24 hours, P < 0.0001

SMILES	viability at 24 h, 10 µM ([1]; MDA-MB-231 breast cancer cells, MDA-MB-231 cells, 10 µM concentration, read-out: cell viability)	viability at 24 h ([1]; MDA-MB-231 breast cancer cells, MDA-MB-231 cells, concentration below 10 µM, 24 hours)	IC50 ([2]; Homo sapiens)	ROS accumulation ([3]; after 4 hours)	ROS accumulation [3, 8]	expression of Farp (mRNA, normalized with GAPDH) [4]	MDA-MB-231 cell migration (gap closure) [5]	expression of LPHN2 (mRNA, normalized with GAPDH) [6]	expression of CXCR4 (mRNA, normalized with GAPDH) [7]	amount of ROS induced by γ-mangostin and α-mangostin ([3]; 5 mM NAC for 1 hour before 10 µM mangostin for 24 hours, P < 0.0001)	viability at 24 h, 10 µM [1]	IC50 ([2]; Homo sapiens, MDA-MB-231, 24 h)	IC50 [2]
COc1c(O)cc2oc3cc(O)c(CC=C(C)C)c(O)c3c(=O)c2c1CC=C(C)C [α-mangostin]	80%	80 to 90%	20 µM	decreased	started to rise	did not alter	a similar outcome was observed	did not alter	did not alter	–	–	–	–
CC(=O)N[C@@H](CS)C(=O)O [NAC, N-acetyl-L-cysteine, reference compound]	–	–	–	–	–	–	–	–	–	reduced	–	–	–
CC(C)=CCc1c(O)cc2oc3cc(O)c(O)c(CC=C(C)C)c3c(=O)c2c1O [γ-mangostin]	–	–	–	decreased	started to rise	downregulated	effectively inhibited MDA-MB-231 cell migration	downregulated	downregulated	–	80%	25 µM	18 ± 5 µM
